Legend:
[1] = target: Glycogen synthase kinase-3 alpha (Homo sapiens) (UniProt P49840); assay: Inhibition of GSK3alpha(h) at 10.0 µM in the Eurofins Kinase panel; details: Compound concentration 10.0 uM
Homo sapiens = organism: Homo sapiens; details: Compound concentration 10.0 uM
[2] = target: T1, Alpha-1A adrenergic receptor (Homo sapiens) (UniProt P35348); assay: Inhibition of Adrenergic alpha1A at compound concentration of 10.0 uM in the Eurofins-Panlabs radioligand binding assay (Eurofins_assay_203110); design: ligand concentration 0.25 nM; details: Rattus norvegicus; Compound concentration 10.0 uM
T1 sequence (whole entry): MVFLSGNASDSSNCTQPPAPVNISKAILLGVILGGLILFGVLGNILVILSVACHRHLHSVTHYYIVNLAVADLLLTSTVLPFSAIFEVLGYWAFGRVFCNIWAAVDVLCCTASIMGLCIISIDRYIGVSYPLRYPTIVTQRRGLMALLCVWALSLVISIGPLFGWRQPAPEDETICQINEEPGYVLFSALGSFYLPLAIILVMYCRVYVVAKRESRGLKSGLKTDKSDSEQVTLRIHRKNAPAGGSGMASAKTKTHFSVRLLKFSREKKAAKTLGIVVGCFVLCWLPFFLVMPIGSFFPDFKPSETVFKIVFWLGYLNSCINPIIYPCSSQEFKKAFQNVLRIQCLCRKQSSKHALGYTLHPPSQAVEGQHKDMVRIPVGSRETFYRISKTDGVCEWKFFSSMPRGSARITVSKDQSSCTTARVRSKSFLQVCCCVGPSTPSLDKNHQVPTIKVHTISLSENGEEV

[3] = target: Fibroblast growth factor receptor 3 (Homo sapiens) (UniProt P22607); assay: Inhibition of FGFR3(h) at 10.0 µM in the Eurofins Kinase panel; details: Compound concentration 10.0 uM
Chain of Fibroblast growth factor receptor 3 (Homo sapiens) (P22607 23-806 limits assumed): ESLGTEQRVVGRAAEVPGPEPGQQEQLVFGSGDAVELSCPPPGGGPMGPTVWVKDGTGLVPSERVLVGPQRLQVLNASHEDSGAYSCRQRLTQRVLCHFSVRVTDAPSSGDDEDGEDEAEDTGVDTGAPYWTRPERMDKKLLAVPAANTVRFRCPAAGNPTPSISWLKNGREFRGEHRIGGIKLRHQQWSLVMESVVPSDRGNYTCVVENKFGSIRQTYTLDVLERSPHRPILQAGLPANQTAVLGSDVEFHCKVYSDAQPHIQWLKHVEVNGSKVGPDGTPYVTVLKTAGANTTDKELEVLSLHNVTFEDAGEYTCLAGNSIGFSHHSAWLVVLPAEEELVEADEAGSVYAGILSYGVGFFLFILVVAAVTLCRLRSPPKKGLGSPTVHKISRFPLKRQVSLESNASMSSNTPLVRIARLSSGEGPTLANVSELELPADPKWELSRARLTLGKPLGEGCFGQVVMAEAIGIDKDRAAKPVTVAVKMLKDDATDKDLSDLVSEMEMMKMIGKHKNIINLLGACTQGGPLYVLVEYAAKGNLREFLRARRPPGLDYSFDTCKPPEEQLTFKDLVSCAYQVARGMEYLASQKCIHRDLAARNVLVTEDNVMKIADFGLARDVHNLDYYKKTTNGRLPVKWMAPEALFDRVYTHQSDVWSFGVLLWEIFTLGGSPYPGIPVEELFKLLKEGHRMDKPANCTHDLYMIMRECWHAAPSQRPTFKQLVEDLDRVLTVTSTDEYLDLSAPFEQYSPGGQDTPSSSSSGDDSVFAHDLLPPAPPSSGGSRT

[4] = target: Citron Rho-interacting kinase (Homo sapiens) (UniProt O14578); assay: Inhibition of CRIK(h) at 10.0 µM in the Eurofins Kinase panel; details: Compound concentration 10.0 uM
[5] = target: Cyclin-dependent kinase-like 2 (Homo sapiens) (UniProt Q92772); assay: Inhibition of CDKL2(h) at 10.0 µM in the Eurofins Kinase panel; details: Compound concentration 10.0 uM
[6] = target: Equilibrative nucleoside transporter 1/2/3/4 (Homo sapiens) (UniProt Q99808+Q7RTT9+Q14542+Q9BZD2); details: Compound concentration 10.0 uM
[7] = target: Glycogen synthase kinase-3 beta (Homo sapiens) (UniProt P49841); assay: Inhibition of GSK3beta(h) at 10.0 µM in the Eurofins Kinase panel; details: Compound concentration 10.0 uM
Chain of Glycogen synthase kinase-3 beta (Homo sapiens) (P49841 whole entry, looked up): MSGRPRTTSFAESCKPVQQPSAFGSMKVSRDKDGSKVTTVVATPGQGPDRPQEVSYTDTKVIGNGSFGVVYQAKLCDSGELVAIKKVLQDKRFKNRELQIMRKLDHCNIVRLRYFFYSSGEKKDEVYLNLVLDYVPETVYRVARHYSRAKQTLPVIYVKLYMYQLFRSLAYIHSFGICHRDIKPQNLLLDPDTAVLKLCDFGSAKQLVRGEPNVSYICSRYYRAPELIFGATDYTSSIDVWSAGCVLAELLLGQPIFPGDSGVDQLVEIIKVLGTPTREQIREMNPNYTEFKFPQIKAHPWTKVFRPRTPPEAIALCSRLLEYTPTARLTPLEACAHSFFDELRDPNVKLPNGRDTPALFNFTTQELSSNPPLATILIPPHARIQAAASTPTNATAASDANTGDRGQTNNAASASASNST

[8] = target: Polyunsaturated fatty acid lipoxygenase ALOX15 (Homo sapiens) (UniProt P16050); assay: Inhibition of Lipoxygenase 15-LO at 10 µM in the Eurofins-Panlabs enzyme assay (Eurofins_assay_138000); details: Oryctolagus cuniculus; Compound concentration 10.0 uM
Chain of Polyunsaturated fatty acid lipoxygenase ALOX15 (Homo sapiens) (P16050 whole entry): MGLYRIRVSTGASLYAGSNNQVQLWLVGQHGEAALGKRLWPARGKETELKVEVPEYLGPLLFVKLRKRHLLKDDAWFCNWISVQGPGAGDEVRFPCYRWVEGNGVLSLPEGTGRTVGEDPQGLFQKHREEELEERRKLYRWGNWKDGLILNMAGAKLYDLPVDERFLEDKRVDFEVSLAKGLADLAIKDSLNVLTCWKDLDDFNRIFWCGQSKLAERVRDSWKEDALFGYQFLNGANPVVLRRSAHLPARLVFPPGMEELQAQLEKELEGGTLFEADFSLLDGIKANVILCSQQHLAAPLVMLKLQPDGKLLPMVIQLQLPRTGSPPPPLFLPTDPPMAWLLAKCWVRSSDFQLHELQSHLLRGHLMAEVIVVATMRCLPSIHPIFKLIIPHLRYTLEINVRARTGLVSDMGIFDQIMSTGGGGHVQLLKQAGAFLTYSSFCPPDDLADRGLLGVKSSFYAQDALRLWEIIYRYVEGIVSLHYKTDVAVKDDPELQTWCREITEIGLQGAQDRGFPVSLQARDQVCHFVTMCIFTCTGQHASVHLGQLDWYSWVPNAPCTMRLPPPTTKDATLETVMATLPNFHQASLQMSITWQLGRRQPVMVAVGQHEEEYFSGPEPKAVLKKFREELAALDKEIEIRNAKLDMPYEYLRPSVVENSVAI

Rattus norvegicus [9] = organism: Rattus norvegicus; assay: Inhibition of Glutamate, NMDA, Phencyclidine at 10 µM in the Eurofins-Panlabs radioligand binding assay (Eurofins_assay_233000); assay type: protein-complex assay; details: Compound concentration 10.0 uM
[10] = target: RAC-alpha serine/threonine-protein kinase (Homo sapiens) (UniProt P31749); assay: Inhibition of PKBalpha(h) at 10.0 µM in the Eurofins Kinase panel; details: Compound concentration 10.0 uM
[11] = target: Aldo-keto reductase family 1 member B1 (Rattus norvegicus) (UniProt P07943); assay: Inhibition of Aldose Reductase at compound concentration of 10.0 uM in the Eurofins-Panlabs enzyme assay (Eurofins_assay_107000); design: substrate with concentration; details: Compound concentration 10.0 uM
Mus musculus = organism: Mus musculus; assay: Inhibition of Interleukin IL-1 at 10 µM in the Eurofins-Panlabs radioligand binding assay (Eurofins_assay_243520); design: ligand concentration 0.1 nM; details: Compound concentration 10.0 uM
[12] = target: Receptor-type tyrosine-protein phosphatase C (Homo sapiens) (UniProt P08575); assay: Inhibition of Protein Tyrosine Phosphatase, PTPRC (CD45) at 10 µM in the Eurofins-Panlabs enzyme assay (Eurofins_assay_190010); details: Compound concentration 10.0 uM
Chain of Receptor-type tyrosine-protein phosphatase C (Homo sapiens) (P08575 whole entry): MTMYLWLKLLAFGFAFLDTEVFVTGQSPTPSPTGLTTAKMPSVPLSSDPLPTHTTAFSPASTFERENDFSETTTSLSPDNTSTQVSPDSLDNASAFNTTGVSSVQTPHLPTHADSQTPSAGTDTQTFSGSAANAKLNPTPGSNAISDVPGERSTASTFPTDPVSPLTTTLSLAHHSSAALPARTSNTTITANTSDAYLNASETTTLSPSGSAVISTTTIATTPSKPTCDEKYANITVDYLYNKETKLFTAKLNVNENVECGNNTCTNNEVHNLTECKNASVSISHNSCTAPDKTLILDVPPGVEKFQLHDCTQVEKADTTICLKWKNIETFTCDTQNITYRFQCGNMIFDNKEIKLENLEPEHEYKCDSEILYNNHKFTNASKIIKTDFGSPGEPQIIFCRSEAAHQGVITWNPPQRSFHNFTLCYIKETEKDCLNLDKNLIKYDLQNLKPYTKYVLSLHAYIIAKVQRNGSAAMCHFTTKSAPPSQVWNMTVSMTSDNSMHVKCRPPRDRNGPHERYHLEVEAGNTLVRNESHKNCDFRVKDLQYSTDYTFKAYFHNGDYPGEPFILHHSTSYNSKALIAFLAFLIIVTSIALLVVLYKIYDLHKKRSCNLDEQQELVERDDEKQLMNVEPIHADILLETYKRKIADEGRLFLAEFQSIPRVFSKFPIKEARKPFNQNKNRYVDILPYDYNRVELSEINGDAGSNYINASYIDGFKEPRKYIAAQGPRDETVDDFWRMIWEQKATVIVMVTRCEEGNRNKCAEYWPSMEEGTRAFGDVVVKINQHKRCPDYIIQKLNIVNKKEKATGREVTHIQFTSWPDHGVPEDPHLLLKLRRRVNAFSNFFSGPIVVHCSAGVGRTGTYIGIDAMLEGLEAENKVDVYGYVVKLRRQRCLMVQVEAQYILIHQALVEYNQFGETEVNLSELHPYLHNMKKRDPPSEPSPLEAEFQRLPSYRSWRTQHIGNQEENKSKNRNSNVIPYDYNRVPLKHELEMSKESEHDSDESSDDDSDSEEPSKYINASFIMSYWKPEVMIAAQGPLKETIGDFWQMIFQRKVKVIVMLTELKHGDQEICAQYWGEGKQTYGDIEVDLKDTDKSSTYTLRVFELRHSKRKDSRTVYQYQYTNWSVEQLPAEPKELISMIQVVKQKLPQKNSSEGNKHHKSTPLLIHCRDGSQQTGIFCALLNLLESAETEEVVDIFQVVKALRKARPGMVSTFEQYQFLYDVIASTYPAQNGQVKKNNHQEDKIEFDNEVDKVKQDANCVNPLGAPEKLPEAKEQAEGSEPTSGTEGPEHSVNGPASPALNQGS

[13] = target: Purinergic P2Y (Rattus norvegicus) (UniProt O35811+Q9EPX4+P49651+Q63371+P41232+O35881+Q6GUG4); details: Compound concentration 10.0 uM
[14] = target: Epidermal growth factor receptor (Homo sapiens) (UniProt P00533); assay: Inhibition of Epidermal Growth Factor (EGF) at 10 µM in the Eurofins-Panlabs radioligand binding assay (Eurofins_assay_225510); details: Compound concentration 10.0 uM
[15] = target: 5-hydroxytryptamine receptor 4 (Homo sapiens) (UniProt Q13639); assay: Inhibition of Serotonin (5-Hydroxytryptamine) 5-HT4 at 10 µM in the Eurofins-Panlabs radioligand binding assay (Eurofins_assay_272000); details: Cavia porcellus; Compound concentration 10.0 uM
Chain of 5-hydroxytryptamine receptor 4 (Homo sapiens) (Q13639 whole entry): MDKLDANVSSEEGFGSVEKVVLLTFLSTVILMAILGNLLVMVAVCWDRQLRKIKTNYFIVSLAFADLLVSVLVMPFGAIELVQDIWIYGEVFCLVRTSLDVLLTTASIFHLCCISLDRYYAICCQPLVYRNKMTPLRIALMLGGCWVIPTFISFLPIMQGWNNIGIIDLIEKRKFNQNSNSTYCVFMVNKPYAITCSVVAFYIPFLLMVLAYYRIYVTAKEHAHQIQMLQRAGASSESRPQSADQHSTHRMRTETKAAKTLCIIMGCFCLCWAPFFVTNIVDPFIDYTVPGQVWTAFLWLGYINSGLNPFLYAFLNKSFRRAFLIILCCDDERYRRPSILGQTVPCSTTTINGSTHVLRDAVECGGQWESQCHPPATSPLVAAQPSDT

[16] = target: Dual specificity protein kinase CLK4 (Homo sapiens) (UniProt Q9HAZ1); assay: Inhibition of CLK4(h) at 10.0 µM in the Eurofins Kinase panel; details: Compound concentration 10.0 uM
[17] = target: Cholecystokinin receptor type A (Homo sapiens) (UniProt P32238); assay: Inhibition of Cholecystokinin CCK1 (CCKA) at 10 µM in the Eurofins-Panlabs radioligand binding assay (Eurofins_assay_218020); details: Compound concentration 10.0 uM
[18] = target: Vasoactive intestinal polypeptide receptor 1 (Homo sapiens) (UniProt P32241); assay: Inhibition of Vasoactive Intestinal Peptide VIP1 at 10 µM in the Eurofins-Panlabs radioligand binding assay (Eurofins_assay_287010); details: Compound concentration 10.0 uM
Chain of Vasoactive intestinal polypeptide receptor 1 (Homo sapiens) (P32241 whole entry): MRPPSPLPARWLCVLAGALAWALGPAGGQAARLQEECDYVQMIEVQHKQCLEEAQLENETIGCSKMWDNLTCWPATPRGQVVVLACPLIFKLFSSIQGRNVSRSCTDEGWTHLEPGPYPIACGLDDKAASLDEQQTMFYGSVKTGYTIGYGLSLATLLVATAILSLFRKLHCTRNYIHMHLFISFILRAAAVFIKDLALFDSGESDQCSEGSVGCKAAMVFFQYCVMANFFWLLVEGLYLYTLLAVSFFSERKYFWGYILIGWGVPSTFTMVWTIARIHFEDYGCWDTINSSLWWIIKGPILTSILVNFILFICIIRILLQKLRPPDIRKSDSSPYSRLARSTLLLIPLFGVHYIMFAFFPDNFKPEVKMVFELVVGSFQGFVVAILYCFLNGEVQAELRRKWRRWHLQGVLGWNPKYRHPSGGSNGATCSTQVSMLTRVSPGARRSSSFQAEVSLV

[19] = target: Substance-P receptor (Homo sapiens) (UniProt P25103); assay: Inhibition of Tachykinin NK1 at 10 µM in the Eurofins-Panlabs radioligand binding assay (Eurofins_assay_255520); design: ligand concentration 0.8 nM; details: Compound concentration 10.0 uM
[20] = target: Adenosine Transporter (Cavia porcellus) (UniProt H0V4R7+H0UUG1+H0V3Z5); assay: Inhibition of Transporter, Adenosine at compound concentration of 10.0 uM in the Eurofins-Panlabs radioligand binding assay (Eurofins_assay_202000); assay type: protein assay; design: ligand concentration 0.5 nM, non-specific ligand with concentration 5 uM Nitrobenzylthioinosine, incubation time 30 min, incubation temperature 25 C; details: Compound concentration 10.0 uM
Rattus norvegicus [21] = organism: Rattus norvegicus; assay: Inhibition of Glycine, Strychnine-Sensitive at 10 µM in the Eurofins-Panlabs radioligand binding assay (Eurofins_assay_239000); details: Compound concentration 10.0 uM
[22] = target: Sigma intracellular receptor 2 (Homo sapiens) (UniProt Q5BJF2); assay: Inhibition of Sigma 2 at 10 µM in the Eurofins-Panlabs radioligand binding assay (Eurofins_assay_278200); design: ligand concentration 3 nM; details: Rattus norvegicus; Compound concentration 10.0 uM
[23] = target: Phosphodiesterase 3 (Homo sapiens) (UniProt Q14432+Q13370); assay: Inhibition of Phosphodiesterase PDE3 at compound concentration of 10.0 uM in the Eurofins-Panlabs enzyme assay (Eurofins_assay_152000); assay type: protein assay; design: substrate with concentration 1.01 uM [3H] cAMP + cAMP, incubation time 20 min, incubation temperature 25 C; details: Compound concentration 10.0 uM
hERG (KCNH2) = hERG (KCNH2) (Homo sapiens, UniProt Q12809); assay: Inhibition of Potassium Channel hERG at 10 µM in the Eurofins-Panlabs radioligand binding assay (Eurofins_assay_265900); design: ligand concentration 1.5 nM, non-specific ligand with concentration Astemizole, incubation time 60 min, incubation temperature 25 °C; details: HEK-293 cells expressing human recombinant hERG, probe [3H] Astemizole, compound concentration 10 uM
[24] = target: Carbonic anhydrase 2 (Homo sapiens) (UniProt P00918); assay: Inhibition of Carbonic Anhydrase II at compound concentration of 10.0 uM in the Eurofins-Panlabs enzyme assay (Eurofins_assay_112020); design: substrate with concentration; details: Compound concentration 10.0 uM
[25] = target: 5-hydroxytryptamine receptor 1B (Homo sapiens) (UniProt P28222); assay: Inhibition of Serotonin (5-Hydroxytryptamine) 5-HT1B at 10 µM in the Eurofins-Panlabs radioligand binding assay (Eurofins_assay_271200); details: Compound concentration 10.0 uM
Chain of 5-hydroxytryptamine receptor 1B (Homo sapiens) (P28222 whole entry): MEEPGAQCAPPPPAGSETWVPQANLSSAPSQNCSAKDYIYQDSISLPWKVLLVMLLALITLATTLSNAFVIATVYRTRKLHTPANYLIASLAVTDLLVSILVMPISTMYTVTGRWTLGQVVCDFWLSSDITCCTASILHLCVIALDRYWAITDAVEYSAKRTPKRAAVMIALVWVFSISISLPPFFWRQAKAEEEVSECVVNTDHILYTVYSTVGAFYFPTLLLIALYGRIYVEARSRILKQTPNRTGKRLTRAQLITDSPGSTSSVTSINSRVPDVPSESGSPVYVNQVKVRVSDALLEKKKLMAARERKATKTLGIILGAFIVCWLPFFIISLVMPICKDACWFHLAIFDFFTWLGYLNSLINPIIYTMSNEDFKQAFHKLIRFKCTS

Chain of Glycogen synthase kinase-3 alpha (Homo sapiens) (P49840 2-483 limits assumed): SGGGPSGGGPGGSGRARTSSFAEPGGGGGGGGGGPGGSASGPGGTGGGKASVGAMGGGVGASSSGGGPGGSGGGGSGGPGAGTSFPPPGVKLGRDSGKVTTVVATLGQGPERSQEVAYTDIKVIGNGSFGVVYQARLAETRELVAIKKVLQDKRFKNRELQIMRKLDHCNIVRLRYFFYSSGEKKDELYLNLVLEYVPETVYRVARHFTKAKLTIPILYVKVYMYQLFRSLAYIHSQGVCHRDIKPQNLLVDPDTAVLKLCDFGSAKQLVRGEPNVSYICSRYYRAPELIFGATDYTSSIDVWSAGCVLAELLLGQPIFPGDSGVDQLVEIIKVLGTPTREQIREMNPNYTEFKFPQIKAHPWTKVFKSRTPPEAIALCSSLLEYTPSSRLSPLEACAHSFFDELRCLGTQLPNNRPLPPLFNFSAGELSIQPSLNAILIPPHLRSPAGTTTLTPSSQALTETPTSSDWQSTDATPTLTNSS

O=c1n(Cc2cncn2-c2cccc(Cl)c2)nc(-c2ccc(Cl)cc2)n1C[C@H](O)C(F)(F)F
inhibition [1]: -1.7%
inhibition (Homo sapiens): -5%
inhibition [2]: 3%
inhibition [3]: -0.44%
inhibition [4]: -2.08%
inhibition [5]: -7.41%
inhibition [6]: 10%

C[C@H](O)c1nc(Cn2nc(-c3ccc(Cl)cc3)n(C[C@H](O)C(F)(F)F)c2=O)nn1-c1cccc(Cl)c1 [PECAVAPTAN]
inhibition [7]: -4.15%
inhibition [8]: 4%
inhibition (Rattus norvegicus [9]): 14%
inhibition [10]: -3.88%
inhibition [11]: 6%
inhibition (Mus musculus): 15%
inhibition [12]: 0%
inhibition [13]: 0%
inhibition [14]: 14%
inhibition [15]: 19%
inhibition [16]: 1.42%
inhibition [17]: 15%
inhibition [18]: 10%
inhibition [19]: 20%
inhibition [20]: 21%
inhibition (Rattus norvegicus [21]): 12%
inhibition [22]: 5%
inhibition [23]: 0%
inhibition at 60 min, 10 µM (hERG (KCNH2)): -3% (not active)
inhibition [24]: -4%
inhibition [25]: -5%

Source: ChEMBL document CHEMBL5463729, “Data for DCP probe BAY 1753011” (2023)
